Experimental data: patent publication US5985824A, “Methods and compositions for treating cystic fibrosis” (priority 1997, dated 1999)
Entries after “also recorded” stand apart in the source; their conditions may differ.

Columns and labels:
[1] = toxicity of DSG to C127-ΔF508-low cells; assay type: cell-based, murine; settings: mouse, read-out: concentrations toxic to the cells
From the text: (§1) C127-ΔF508-low (mouse mammary tumor) is a recombinant cell line stably transfected with the cDNA encoding the mutant ΔF508-CFTR (Cheng et al. (1995), supra.; Marshall et al. (1994), J. Biol. Chem. 269: 2987-2995). […] C127-mock is a cell line that has been stably transfected with the backbone of the expression vector used to generate C127-ΔF508-low (Cheng et al. (1995), supra.). LLCPK1 -ΔF508 (pig kidney epithelial) is a recombinant cell line stably expressing low levels of the mutant ΔF508-CFTR protein (Marshall et al., supra.). The details of the generation, characterization and routine propagation of these cell lines has been described (Cheng et al. (1995), supra.; Marshall et al., supra.).
(§2) Cells were treated with up to 100 μg/ml of DSG for up to 72 h. Concentrations of DSG >50 μg/ml were toxic to most of the cell types tested. Since DSG is modified by polyamine oxidase present in fetal bovine serum (Tepper et al., supra.), cells were routinely replenished with fresh medium containing DSG and aminoguanidine every 24 h. As a control in some experiments, C127 cells were also treated with 5 mM sodium butyrate for 24 h. to enhance expression of ΔF508-CFTR (Cheng et al. (1995), supra.). As another control, cells were cultured at 23° C. for 24 to 48 h. to facilitate folding of the mutant ΔF508-CFTR at the ER.

[2] = toxicity of DSG to cells in culture; assay type: cell-based; settings: up to 72 h; read-out: concentrations toxic to most of the cell types tested
Description: as §2
CFT1 and JME/CF15 are two immortalized human CF airway epitheliavarill lines which contain the ΔF508 variant (Jefferson et al. (1990), Am. J. Physiol. 259: L496-L505; Yankaskas et al., (1993), Am. J. Physiol. 264: C1219-C1230). Cells were treated with up to 100 μg/ml of DSG for up to 72 h. Concentrations of DSG >50 μg/ml were toxic to most of the cell types tested. Since DSG is modified by polyamine oxidase present in fetal bovine serum (Tepper et al., supra.), cells were routinely replenished with fresh medium containing DSG and aminoguanidine every 24 h. As a control in some experiments, cells were cultured at 23° C. for 24 to 48 h. to facilitate folding of the mutant ΔF508-CFTR at the ER. […]

[3] = system: ΔF508-CFTR (C127-ΔF508-low cells); assay: SPQ halide efflux assay, cAMP-stimulated Cl- channel activity, C127-ΔF508-low cells; assay type: cell-based
Description: The cAMP-dependent CFTR Cl^- channel activity was assessed using the halide-sensitive fluorophore 6-methoxy-N-(3-sulfopropyl)-quinolinium (SPQ) essentially as described previously (Cheng et al., (1995), supra.; Marshall et al., supra.). Briefly, the cells were treated with different amounts of DSG for the times specified. At the end of the treatment period, the cells were loaded with SPQ by hypotonic shock for 4 min at room temperature. SPQ fluorescence initially was quenched by incubating the cells for up to 30 min in a NaI buffer (135 mM NaI, 2.4 mM K2 HPO4, 0.6 mM KH2 PO4, 1 mM MgSO4, 1 mM CaSO4, 10 mM dextrose, and 10 mM N-2 hydroxyethylpiperazine-N'2-ethanesulfonic acid, pH 7.4). After measuring the baseline fluorescence (Fo) for 2 min., the NaI solution was replaced with one containing 135 mM NaNO3, and fluorescence was measured for another 16 min. Forskolin (20 μM) and 3-isobutyl-1-methyl-xanthine (IBMX) (100 μM) were added 5 min after the anion substitution to increase intracellular levels of cAMP.
An increase in halide permeability is reflected by a more rapid increase in SPQ fluorescence. It is the rate of change rather than the absolute change in signal that is the important variable in evaluating anion permeability. Differences in absolute levels reflect quantitative differences between groups in SPQ loading, size of cells, or number of cells studied. The data are presented as means± SE of fluorescence at time t (Ft) minus the baseline fluorescence (Fo, the average fluorescence measured in the presence of I^- for 2 min. before ion substitution) and are representative of results obtained under each condition.
For each experiment, between 50 to 100 cells were examined on a given day and studies under each condition were repeated on at least two days. For each experiment, the responses were compared with those obtained with control or untreated cells. […] Under the conditions specified above, control cells were unresponsive to added cAMP agonists. There was a broad spectrum in the rate of change in SPQ fluorescence observed with responsive cells. Normally, cells were scored as responsive if they generated a minimum of a […] change in the rate of increase in SPQ fluorescence following stimulation with cAMP agonists. Because the response was heterogenous, the data shown are for the 10% of cells in each experiment showing the greatest response.
A bovine-papilloma virus based eukaryotic expression vector (pBPV-CFTR-ΔF508) containing the gene for ΔF508 CFTR and neomycin resistance were transfected into C127 cells. The C127 cells are murine mammary cells which were obtained from ATCC (#CRL 1616). The expression of the mutant ΔF508 protein and neomycin was driven using a metallothionein promoter. Following transfection, clonal cells resistant to G418 were isolated and cells expressing the mutant ΔF508 protein were subsequently identified using antibodies specific for CFTR (mAb-13-1). The cells expressing the mutant ΔF508 CFTR protein were maintained in Dulbecco's modified eagle media (DMEM) supplemented with glutamine and fetal calf serum.
as §1
Cells were treated with up to 100 μg/ml of DSG for up to 72 h. Concentrations of DSG >50 μg/ml were toxic to most of the cell types tested. […]

N=C(N)NCCCCCCC(=O)NC(O)C(=O)NCCCCNCCCN (centres unmarked) [DSG, deoxyspergualin]
MCC at 72 h [1]: > 50 µg/mL | MCC at 72 h [2]: > 50 µg/mL | response in mock transfected cells ([3]; C127-mock cells, DSG treated): No response was observed | cells generating a measurable response ([3]; C127-ΔF508-low cells, SPQ, average of 5 experiments): Approximately 17% | cAMP-stimulated change in SPQ fluorescence / Cl- channel activity, in words ([3]; C127-ΔF508-low cells, DSG 10-100 μg/ml, sodium butyrate 5 mM 24 h, spermidine 5 μg/ml 72 h): marginal; also recorded: resulted in the appearance of functional cAMP-stimulated CFTR Cl^- channel activity at the cell surface; also recorded: gave a rapid change in fluorescence following stimulation with forskolin; also recorded: More optimal responses were observed in cells that were treated with lower concentrations of DSG compared to higher concentrations of DSG; also recorded: restored cAMP-stimulated anion efflux albeit to a lesser extent than was observed with sodium butyrate treatment; also recorded: less than that obtained with sodium butyrate
